Measured values taken from paper PMC9951290, “Comprehensive Structure–Activity Relationship Studies of Cepafungin Enabled by Biocatalytic C–H Oxidations” (ACS Central Science, 2023).
Read-outs that look alike come from different tables or passages of the source.

Legend:
proteasome subunit β2 = molecular target: T1, proteasome subunit β2 (Homo sapiens, UniProt Q99436); test: In situ β2 proteasome activity assay (Ac-RLR-AMC) in RPMI 8226 cells; assay type: cell-based; settings: 6 h, n = 3, Figure 4D
T1 sequence (Q99436 44-277): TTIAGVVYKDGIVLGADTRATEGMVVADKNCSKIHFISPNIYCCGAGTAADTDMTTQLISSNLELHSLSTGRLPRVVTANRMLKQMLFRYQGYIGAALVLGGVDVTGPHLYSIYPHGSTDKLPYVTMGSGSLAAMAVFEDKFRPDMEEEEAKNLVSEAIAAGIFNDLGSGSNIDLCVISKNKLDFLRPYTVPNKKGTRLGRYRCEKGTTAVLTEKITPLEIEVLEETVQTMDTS
Protocol: Cellular assays were performed on human multiple myeloma RPMI 8226 cells (Figure 4). First, relative inhibition of proteasome subunits β5 and β2 for all analogues and the natural product was measured at 30 nM compound concentration. Following incubation of the compounds in cell culture for 6 h, cells were lysed, and fluorogenic subunit-specific peptide substrates Suc-LLVY-AMC (β5) or Ac-RLR-AMC (β2) were incubated with the lysates; fluorescence readings provided relative proteasome activity levels in comparison with DMSO (Figure 4A). Next, cytotoxicity screening was performed at 30 and 100 nM concentrations for sufficient coverage of dynamic range (Figure 4B). […] Therefore, the improved cytotoxicity of phenyl cepafungin 50 likely results from a more pronounced loss of β5 function in RPMI 8226 cells. This drastic increase in proteasome inhibition may be due to π-stacking of the lipid tail phenyl ring with the β6 subunit residues Tyr106 and/or Tyr5. […]
Mammalian cells were maintained in RPMI-1640 media. […] Cells were lysed by needle sonication to obtain cell lysates and protein concentration was determined using the […]
(§1) fluorescence was read at A360ex/A460em. […]
in DMSO) or DMSO and cultured for 48 hours. Toxicity was determined using the WST-1 assay (Roche) according to the protocol of the manufacturer. […]

proteasome subunit β5 [1] = molecular target: T2, proteasome subunit β5 (Homo sapiens, UniProt P28074); settings: in situ in RPMI 8226 cells; preliminary analogue series, Figure 2; cited from earlier work
T2 construct: Following incubation of the compounds in cell culture for 6 h, cells were lysed; endogenous in cells; host or cells: RPMI 8226 (human multiple myeloma)

β5-subunit = settings: purified yeast proteasome; cited from earlier work
proteasome subunit β5 [2] = molecular target: T2, proteasome subunit β5; test: In situ β5 proteasome activity assay (Suc-LLVY-AMC) in RPMI 8226 cells; assay type: cell-based; settings: RPMI 8226 cells
Description: A preliminary series of analogues, including the natural product glidobactin A (2), were synthesized by largely the same route (Scheme 2B, Figure 2).[36] Desoxycepafungin (38) was synthesized from Boc-Lys(Boc)-OH by peptide couplings/macrocyclization to assess the role of the macrocycle hydroxylation in 1 toward proteasome inhibition. The saturated cepafungin analogue 39 was designed to address the possible role of rigidity in the tail fragment induced by the diene seen in many natural cepafungins and glidobactins. An analogue bearing unsaturation at its macrocyclic lysine was envisioned to provide a head-to-head comparison between the cepafungin and syringolin macrocyclic core. […] Proteasome subunit β5 IC50 values were determined in situ in RPMI 8226 cells. In close agreement with prior measurement of β5 IC50 for natural 1 and 2 in purified yeast proteasome,[12] in our hands the additional branching methyl in 1 indeed leads to ca. 5-fold improved IC50 compared to 2 in RPMI 8226 cells. […] Likewise, saturation of the fatty acid fragment in 39 causes ca. 14-fold decrease in β5 inhibition. This preliminary series of analogues highlighted that the macrocyclic hydroxylation, fatty acid unsaturation, and terminal lipid functionality are critical for potent proteasome inhibitory activity.
Cellular assays were performed on human multiple myeloma RPMI 8226 cells (Figure 4). First, relative inhibition of proteasome subunits β5 and β2 for all analogues and the natural product was measured at 30 nM compound concentration. Following incubation of the compounds in cell culture for 6 h, cells were lysed, and fluorogenic subunit-specific peptide substrates Suc-LLVY-AMC (β5) or Ac-RLR-AMC (β2) were incubated with the lysates; fluorescence readings provided relative proteasome activity levels in comparison with DMSO (Figure 4A). Next, cytotoxicity screening was performed at 30 and 100 nM concentrations for sufficient coverage of dynamic range (Figure 4B). […] Therefore, the improved cytotoxicity of phenyl cepafungin 50 likely results from a more pronounced loss of β5 function in RPMI 8226 cells. This drastic increase in proteasome inhibition may be due to π-stacking of the lipid tail phenyl ring with the β6 subunit residues Tyr106 and/or Tyr5. The β2 subunit-bound natural product has residues Tyr102 and Phe103 on the adjacent β3 subunit oriented further away from the terminal lipid methyl groups, and presumably would not facilitate π-stacking to the extent possible at the adjacent β6 subunit (see Figure 3 and Figure S4). […] These combined modifications were made in hopes that the effects of both substitutions would be additive. […] The presence of a Thr residue next to the cepafungin macrocycle appears to be favored over the ethyl side chain of desoxy-Thr analogue 44 as indicated by cytotoxicity and hydrogen-bonding seen in the cepafungin-bound crystal structure (Figures 3 and 4B). […]
Mammalian cell culture and lysate preparation
Mammalian cells were maintained in RPMI-1640 media. All media were supplemented with 10% fetal bovine serum (FBS, Life Technologies Cat# 10437028), non-essential amino acids (Sigma-Aldrich Cat# M7145) and penicillin/streptomycin (Sigma-Aldrich Cat# P4333). Cells were grown at 37 °C under 5% CO2 atmosphere. […] Cells were lysed by needle sonication to obtain cell lysates and protein concentration was determined using the […]
as §1

RPMI 8226 cells = settings: ∼3700 proteins quantified, 19 in common; cited from earlier work

SMILES: CC(C)CCCCCC=CC=CC(=O)NC(C(=O)NC1CC(O)CCNC(=O)C=CC(C)NC1=O)C(C)O (stereo not shown) [compound 1, cepafungin I]
- IC50 (proteasome subunit β2): 0.043 µM
- IC50 (proteasome subunit β5 [1]): 0.016 ± 0.001 µM
- fold improvement of β5-subunit inhibition compared to glidobactin A (2) (β5-subunit): ca. 5 fold
- fold improved β5 IC50 of 1 compared to 2 (proteasome subunit β5 [2]): ca. 5 fold
- fold improved β5 inhibition of 1 compared to 38 (proteasome subunit β5 [2]): ca. 11 fold
- IC50 (proteasome subunit β5 [2]; 6 h, Suc-LLVY-AMC, n = 3, Figure 4D): 0.028 µM
- number of proteins upregulated compared to DMSO control (RPMI 8226 cells): 88 proteins
